The term Ki denotes the equilibrium dissociation constant of an inhibitor or competing ligand from its target. Read a low Ki as a stronger hold on the target.

Ki data for 13 compounds are collected here from ChEMBL document CHEMBL1132600 (J Med Chem, 1999).

This assay concerns the target Cannabinoid receptor 1 (Rattus norvegicus, UniProt P20272). In words: Tested for binding affinity to Cannabinoid receptor 1.

Sequence of Cannabinoid receptor 1 (P20272 whole entry): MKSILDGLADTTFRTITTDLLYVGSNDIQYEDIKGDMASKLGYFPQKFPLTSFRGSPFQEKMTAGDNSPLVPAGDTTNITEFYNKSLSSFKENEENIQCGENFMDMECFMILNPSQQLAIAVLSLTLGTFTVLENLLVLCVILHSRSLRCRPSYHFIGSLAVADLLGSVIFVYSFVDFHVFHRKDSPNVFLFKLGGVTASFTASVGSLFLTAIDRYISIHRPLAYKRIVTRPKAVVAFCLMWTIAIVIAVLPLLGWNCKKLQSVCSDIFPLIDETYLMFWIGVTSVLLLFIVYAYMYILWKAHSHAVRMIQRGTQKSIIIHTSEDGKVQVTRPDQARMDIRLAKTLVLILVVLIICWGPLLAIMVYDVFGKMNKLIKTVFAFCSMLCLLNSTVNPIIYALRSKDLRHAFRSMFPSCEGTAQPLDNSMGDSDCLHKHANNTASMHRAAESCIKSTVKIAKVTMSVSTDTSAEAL

With `CCCCCCCC/C=C\CCCCCCCC(=O)NCCO` [OLEOYLETHANOLAMIDE], the Ki is above 10000 nM. On to `CCCCC/C=C\C/C=C\C/C=C\C/C=C\CCCC(=O)Nc1ccc(CO)cc1`, for which the inhibitory constant (Ki) was above 3000 nM. `CCCCCCCCCCCCCCCCCC(=O)NCCO` [N-(2-HYDROXYETHYL)STEARAMIDE] displayed a Ki of 217 nM. `CCCCC/C=C\C/C=C\CCCCCCCC(=O)N[C@@H](C)CO`: the Ki was above 10000 nM.

The compound `CCCCC/C=C\C/C=C\C/C=C\C/C=C\CCCC(=O)NC[C@@H](C)O` came in with an inhibition constant Ki of 119 nM.

Compound `CCCCCCCC/C=C\CCCCCCCC(=O)N[C@@H](C)CO` returned an inhibition constant Ki above 10000 nM.

In turn, `CCCCC/C=C\C/C=C\C/C=C\C/C=C\CCCC(=O)N(C)CCO` gave an inhibitory constant (Ki) of 4980 nM. For the compound `CCCCC/C=C\C/C=C\C/C=C\C/C=C\CCCC(=O)NC1CCC(O)CC1` (stereo not drawn), the affinity, expressed as Ki, was 217 nM. The same measure for `CCCCC/C=C\C/C=C\C/C=C\C/C=C\CCCC(=O)NCCF`: 8.6 nM; for `CCCCC/C=C\C/C=C\C/C=C\C/C=C\CCCC(N)=O` [ARACHIDONAMIDE]: 9600 nM; for `CCCCC/C=C\C/C=C\C/C=C\C/C=C\CCC(C)(C)C(=O)NCCO`: 72.2 nM.

`CCCCC/C=C\C/C=C\C/C=C\C/C=C\CCCC(=O)NC(C)(C)CO` registered a Ki of 151 nM.

In turn, `CCCCC/C=C\C/C=C\C/C=C\C/C=C\CCCC(=O)NC[C@H](C)O` gave a Ki of 26 nM.
